Measurements from patent US20220324796A1, “ANTIBIOTIC COMPOUNDS” (The General Hospital Corporation, priority 2019, published 2022).
Converted amounts (≈) assume the structure as drawn.

Assays:
MRSA BF2 = experiment: MIC assay (micro-dilution); assay type: cell-based, S. aureus; conditions: Staphylococcus aureus
Description: (§1) Minimal inhibitory concentration (MIC) assay. The MICs of antibiotics were determined by the standard micro-dilution method recommended by the Clinical and Laboratory Standards Institute. MIC assays were conducted in biological triplicate.
Antimicrobial activity of each analog was tested against four MRSA strains (MW2, BF1, BF2, and BF3), Pseudomonas aeruginosa (PA14), Klebsiella pneumonia (WGLW2), and Acinetobacter baumannii (ATCC 17978).

[1] = system: MRSA MW2 biofilm persisters; experiment: Biofilm persister killing assay; assay type: cell-based, S. aureus
Description: Biofilm persister killing assay. An overnight culture of S. aureus MW2 cells was diluted 1:200 with TSB supplemented with 0.2% glucose and 3% NaCl. A 13 mm diameter Millipore mixed cellulose ester membrane (EMD Millipore GSWP01300) was placed at the bottom of each well of a 12-well assay plate (Falcon 353043). […] was added to each well and statically incubated at 37° C. for 24 h. The membranes were washed 3-times with PBS and transferred to a fresh 12-well plate, 1 mL PBS containing the desired concentration of antibiotics was added to each well, and then the plate was statically incubated at 37° C. for 24 h, The membranes were washed 3 times with PBS, placed in 2-mL microcentrifuge tubes containing 1 mL PBS, and sonicated in an ultrasonic bath (Fisher Scientific FS 30) for 10 min. The sonicated samples were serially diluted, spot-plated on TSA to enumerate the number of live cells. The experiment was conducted in biological triplicate.

[2] = system: daptomycin-intermediate or-resistant Enterococcal strains; experiment: MIC assay, Enterococcal strains; assay type: cell-based; conditions: Enterococcus; range over several daptomycin-intermediate or -resistant Enterococcal strains
Description: (§2) Bacterial strains and growth conditions. S. aureus strains were grown in tryptic soy broth (TSB) (BD, Franklin Lakes, N.J., USA). E. faecium and E. faecalis strains were grown in brain-heart infusion (BHI) broth (BD, Franklin Lakes, N.J., USA), and four Gram-negative species, Klebsiella pneumoniae, Acinetobacter baumannii, Pseudomonas aeruginosa, and Enterobacter aerogenes were grown in Luria Bertani (LB) broth (BD, Franklin Lakes, N.J., USA). All bacteria were grown at 37° C. at 200 r.p.m.
as §1

S. aureus MW2 = experiment: Transmission electron microscopy; assay type: cell-based; conditions: 10× MIC, 2 h
Description: Transmission electron microscopy. S. aureus MW2 was grown to exponential phase (OD600=˜0.4) at 37° C. Bacterial cultures were then treated with 10× MIC of bithionol or 0.1% DMSO (control) at 37° C. for 2 h. 1 mL of the treated bacterial samples were fixed with the same volume of a 2× fixative, a mixture of 5% glutaraldehyde, 2.5% paraformaldehyde and 0.06% picric acid in 0.2 M sodium cacodylate buffer (pH 7.4). Fixed cells were washed in 0.1 M cacodylate buffer and post-fixed with 1% Osmium tetroxide (OsO4)/1.5% Potassium ferrocyanide (KFeCN6) for 1 h. The fixed cells were washed twice in water, once in maleate buffer, and incubated in the maleate buffer containing 1% uranyl acetate for lh. Cells were then washed twice in water and subsequently dehydrated in an alcohol gradient series (10 min each; 50%, 70%, 90%, 2×10 min 100%). The cells were then incubated in propyleneoxide for 1 h, infiltrated overnight in a 1:1 mixture of propyleneoxide and Spurr's low viscosity resin (Electron Microscopy sciences, Hatfield, Pa.) and polymerized at 60° C. for 48 h. Ultrathin sections (about 60 nm) were cut on a Reichert Ultracut-S microtome (Leica Microsystem, Wetzlar, Germany), picked up onto copper grids, and stained with lead citrate. Micrographs of the cells were taken using a JEOL 1200EX transmission electron microscope (Harvard Medical School EM facility).

[3] = system: panel of 27 Gram-positive pathogens; experiment: MIC assay, panel of Gram-positive pathogens; assay type: cell-based; conditions: Staphylococcus aureus; range over panel of 27 Gram-positive pathogens incl. VRSA and resistant Enterococcal strains (FIG. 6); read-out: minimum inhibitory concentrations
Description: as §2, §1

[4] = system: VRSA strain VRS1 persisters; experiment: Persister killing assay; assay type: cell-based, S. aureus; conditions: linezolid and daptomycin at 100× MIC; bithionol at indicated concentrations (FIG. 1E)
Description: (§3) Persister killing assay. […] Persister cells of MRSA MW2 or VRSA VRS1 were prepared by growing cultures overnight to stationary phase at 37° C. at 200 rpm and washing three times with PBS. 1 mL of ˜1×10^8 CFU/mL MRSA persisters was added to 1 mL of PBS containing a 2-fold higher concentration of the desired concentration of antibiotics in a 96-well assay block (Corning Costar 3960). For assays with daptomycin, PBS was supplemented with 50 μg/mL CaCl2. The assay block was incubated at 37° C. with shaking at 200 rpm. At various times, 400 μl samples were removed, washed once with PBS, serially diluted and spot-plated on TSA plates. Colonies were counted after overnight incubation at 37° C. to determine the titer of live cells. These experiments were conducted in triplicate.

[5] = system: stationary-phase MRSA MW2 persisters; experiment: Persister killing assay; assay type: cell-based, S. aureus
Description: as §3

Oc1c(Cl)cc(Cl)cc1Sc1cc(Cl)cc(Cl)c1O [bithionol, 6,6′-thio-bis-(2,4-dichlorophenol)]
MIC (MRSA BF2): 0.5 µg/mL (≈ 1.4 µM)
time to complete eradication of biofilm persisters ([1]; 32 μg/mL (32× MIC)): ≤ 24 h
concentration completely eradicating biofilm persisters ([1]; 24 h treatment): 32 µg/mL
MIC [2]: 0.5 to 2 µg/mL (≈ 1.4 to 5.62 µM)
TEM findings (S. aureus MW2): disrupts MRSA membranes
MIC [3]: 0.5 to 2 µg/mL (≈ 1.4 to 5.62 µM)
activity against VRSA VRS1 persisters [4]: highly efficacious at eradicating
time to complete eradication of stationary-phase MRSA persisters ([5]; 32 μg/mL (32× MIC)): ≤ 2 h
concentration required to completely eradicate stationary-phase MRSA persisters ([5]; 5×10^7 CFU/mL MRSA MW2 persisters): 32 µg/mL
concentrations exhibiting significant killing activity against MRSA MW2 persisters ([5]; FIG. 1C): > 16 µg/mL
viability of MRSA persisters ([5]; bithionol 8 μg/mL alone (FIGS. 1C, D)): do not lead to a significant decrease in the viability
